# Test results published in US20250171438A1 (Agios Pharmaceuticals, Inc., priority 2022, published 2025).
# Target: T1, human PAH with the R408W mutation (Homo sapiens, UniProt P00439, R408W)
# T1 construct: expressed in transfected cells
# T1 sequence (P00439 1-452 R408W): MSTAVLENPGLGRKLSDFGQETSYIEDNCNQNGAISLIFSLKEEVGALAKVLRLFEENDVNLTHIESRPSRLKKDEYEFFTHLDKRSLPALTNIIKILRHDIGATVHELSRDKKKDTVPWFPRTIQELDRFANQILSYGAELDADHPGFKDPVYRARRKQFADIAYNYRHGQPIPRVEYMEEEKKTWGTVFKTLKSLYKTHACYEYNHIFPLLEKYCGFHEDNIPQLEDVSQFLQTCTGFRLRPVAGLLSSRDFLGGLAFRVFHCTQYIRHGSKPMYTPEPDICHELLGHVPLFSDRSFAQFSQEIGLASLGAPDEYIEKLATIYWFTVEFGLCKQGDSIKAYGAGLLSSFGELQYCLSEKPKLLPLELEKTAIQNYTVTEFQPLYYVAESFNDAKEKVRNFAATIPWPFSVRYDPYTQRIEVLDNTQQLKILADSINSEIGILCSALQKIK
# Assay: Cell Based Phenylalanine Flux Assay
# Conditions: A375 cells expressing human R408W PAH; 24 hrs compound incubation; 13C-Tyrosine by LC-MS; average where tested multiple times; read-out: AC50
row,AC50,Compound
1,< 500 nM,"O=C(CC1CC1)N1CCc2[nH]cnc2[C@H]1c1nc2ccccc2[nH]1 [Example 931, (S)-1-(4-(1H-benzo[d]imidazol-2-yl)-6,7-dihydro-1H-imidazo[4,5-c]pyridin-5(4H)-yl)-2-cyclopropylethanone]"
2,> 5000 nM,"O=C(c1nccs1)N1CCc2[nH]cnc2[C@@H]1c1nc2ccc(Br)cc2[nH]1 [Example 932, (R)-(4-(6-bromo-1H-benzo[d]imidazol-2-yl)-6,7-dihydro-1H-imidazo[4,5-c]pyridin-5(4H)-yl)(thiazol-2-yl)methanone]"
3,1000 to 5000 nM,"O=C(c1nccs1)N1CCc2[nH]cnc2[C@H]1c1nc2ccc(Br)cc2[nH]1 [Example 933, (S)-(4-(6-bromo-1H-benzo[d]imidazol-2-yl)-6,7-dihydro-1H-imidazo[4,5-c]pyridin-5(4H)-yl)(thiazol-2-yl)methanone]"
4,1000 to 5000 nM,"O=C(CCC1CC1)N1CCc2[nH]cnc2[C@@H]1c1nc2ccc(Br)cc2[nH]1 [Example 934, (R)-1-(4-(6-bromo-1H-benzo[d]imidazol-2-yl)-6,7-dihydro-1H-imidazo[4,5-c]pyridin-5(4H)-yl)-3-cyclopropylpropan-1-one]"
5,< 500 nM,"O=C(CCC1CC1)N1CCc2[nH]cnc2[C@H]1c1nc2ccc(Br)cc2[nH]1 [Example 935, (S)-1-(4-(6-bromo-1H-benzo[d]imidazol-2-yl)-6,7-dihydro-1H-imidazo[4,5-c]pyridin-5(4H)-yl)-3-cyclopropylpropan-1-one]"
6,1000 to 5000 nM,"O=C(c1cnn2ccccc12)N1CCc2[nH]cnc2[C@H]1c1nc2ccc(Cl)cc2[nH]1 [Example 936, (S)-(4-(6-chloro-1H-benzo[d]imidazol-2-yl)-6,7-dihydro-1H-imidazo[4,5-c]pyridin-5(4H)-yl)(pyrazolo[1,5-a]pyridin-3-yl)methanone]"
7,1000 to 5000 nM,"O=C(c1cnn2ccccc12)N1CCc2[nH]cnc2[C@@H]1c1nc2ccc(Cl)cc2[nH]1 [Example 937, (R)-(4-(6-chloro-1H-benzo[d]imidazol-2-yl)-6,7-dihydro-1H-imidazo[4,5-c]pyridin-5(4H)-yl)(pyrazolo[1,5-a]pyridin-3-yl)methanone]"
8,1000 to 5000 nM,"O=C(CCC1CC1)N1CCc2[nH]cnc2[C@@H]1c1nc2ccc(Cl)cc2[nH]1 [Example 938, (R)-1-(4-(6-chloro-1H-benzo[d]imidazol-2-yl)-6,7-dihydro-1H-imidazo[4,5-c]pyridin-5(4H)-yl)-3-cyclopropylpropan-1-one]"
9,< 500 nM,"O=C(CCC1CC1)N1CCc2[nH]cnc2[C@H]1c1nc2ccc(Cl)cc2[nH]1 [Example 939, (S)-1-(4-(6-chloro-1H-benzo[d]imidazol-2-yl)-6,7-dihydro-1H-imidazo[4,5-c]pyridin-5(4H)-yl)-3-cyclopropylpropan-1-one]"
10,500 to 1000 nM,"O=C(c1cnn2ccccc12)N1CCc2[nH]cnc2[C@H]1c1nc2ccc(Br)cc2[nH]1 [Example 940, (S)-(4-(6-bromo-1H-benzo[d]imidazol-2-yl)-6,7-dihydro-1H-imidazo[4,5-c]pyridin-5(4H)-yl)(pyrazolo[1,5-a]pyridin-3-yl)methanone]"
11,1000 to 5000 nM,"O=C(c1cnn2ccccc12)N1CCc2[nH]cnc2[C@@H]1c1nc2ccc(Br)cc2[nH]1 [Example 941, (R)-(4-(6-bromo-1H-benzo[d]imidazol-2-yl)-6,7-dihydro-1H-imidazo[4,5-c]pyridin-5(4H)-yl)(pyrazolo[1,5-a]pyridin-3-yl)methanone]"
12,500 to 1000 nM,"CC(C)(C)CCC(=O)N1CCc2[nH]cnc2[C@H]1c1nc2ccc(Br)cc2[nH]1 [Example 942, (S)-1-(4-(6-bromo-1H-benzo[d]imidazol-2-yl)-6,7-dihydro-1H-imidazo[4,5-c]pyridin-5(4H)-yl)-4,4-dimethylpentan-1-one]"
13,1000 to 5000 nM,"CC(C)(C)CCC(=O)N1CCc2[nH]cnc2[C@@H]1c1nc2ccc(Br)cc2[nH]1 [Example 943, (R)-1-(4-(6-bromo-1H-benzo[d]imidazol-2-yl)-6,7-dihydro-1H-imidazo[4,5-c]pyridin-5(4H)-yl)-4,4-dimethylpentan-1-one]"
14,500 to 1000 nM,"O=C(c1cnn2ccc(F)cc12)N1CCc2[nH]cnc2[C@H]1c1nc2ccccc2[nH]1 [Example 944, (S)-(4-(1H-benzo[d]imidazol-2-yl)-6,7-dihydro-1H-imidazo[4,5-c]pyridin-5(4H)-yl)(5-fluoropyrazolo[1,5-a]pyridin-3-yl)methanone]"
15,< 500 nM,"O=C(CC1CC1)N1CCc2[nH]cnc2[C@H]1c1nc2ccc(Br)cc2[nH]1 [Example 945, (S)-1-(4-(6-bromo-1H-benzo[d]imidazol-2-yl)-6,7-dihydro-1H-imidazo[4,5-c]pyridin-5(4H)-yl)-2-cyclopropylethanone]"
16,500 to 1000 nM,"O=C(CC1CC1)N1CCc2[nH]cnc2[C@@H]1c1nc2ccc(Br)cc2[nH]1 [Example 946, (R)-1-(4-(6-bromo-1H-benzo[d]imidazol-2-yl)-6,7-dihydro-1H-imidazo[4,5-c]pyridin-5(4H)-yl)-2-cyclopropylethanone]"

row,AC50,Compound
1,500 to 1000 nM,"O=C(c1cncs1)N1CCc2[nH]cnc2[C@H]1c1nc2ccc(Br)cc2[nH]1 [Example 947, (S)-(4-(6-bromo-1H-benzo[d]imidazol-2-yl)-6,7-dihydro-1H-imidazo[4,5-c]pyridin-5(4H)-yl)(thiazol-5-yl)methanone]"
2,1000 to 5000 nM,"O=C(c1cncs1)N1CCc2[nH]cnc2[C@@H]1c1nc2ccc(Br)cc2[nH]1 [Example 948, (R)-(4-(6-bromo-1H-benzo[d]imidazol-2-yl)-6,7-dihydro-1H-imidazo[4,5-c]pyridin-5(4H)-yl)(thiazol-5-yl)methanone]"
3,< 500 nM,"O=C(c1nc(Cl)cs1)N1CCc2[nH]cnc2[C@H]1c1nc2ccc(Br)cc2[nH]1 [Example 949, (S)-(4-(6-bromo-1H-benzo[d]imidazol-2-yl)-6,7-dihydro-1H-imidazo[4,5-c]pyridin-5(4H)-yl)(4-chlorothiazol-2-yl)methanone]"
4,1000 to 5000 nM,"O=C(c1nc(Cl)cs1)N1CCc2[nH]cnc2[C@@H]1c1nc2ccc(Br)cc2[nH]1 [Example 950, (R)-(4-(6-bromo-1H-benzo[d]imidazol-2-yl)-6,7-dihydro-1H-imidazo[4,5-c]pyridin-5(4H)-yl)(4-chlorothiazol-2-yl)methanone]"
5,> 5000 nM,"O=C(C1CC1)N1CCc2[nH]cnc2[C@@H]1c1nc2ccc(Br)cc2[nH]1 [Example 951, (R)-(4-(6-bromo-1H-benzo[d]imidazol-2-yl)-6,7-dihydro-1H-imidazo[4,5-c]pyridin-5(4H)-yl)(cyclopropyl)methanone]"
6,500 to 1000 nM,"O=C(C1CC1)N1CCc2[nH]cnc2[C@H]1c1nc2ccc(Br)cc2[nH]1 [Example 952, (S)-(4-(6-bromo-1H-benzo[d]imidazol-2-yl)-6,7-dihydro-1H-imidazo[4,5-c]pyridin-5(4H)-yl)(cyclopropyl)methanone]"
7,1000 to 5000 nM,"O=C(CC1CC1)N1CCc2[nH]cnc2[C@@H]1c1nc2ccc(Cl)cc2[nH]1 [Example 953, (R)-1-(4-(6-chloro-1H-benzo[d]imidazol-2-yl)-6,7-dihydro-1H-imidazo[4,5-c]pyridin-5(4H)-yl)-2-cyclopropylethanone]"
8,< 500 nM,"O=C(CC1CC1)N1CCc2[nH]cnc2[C@H]1c1nc2ccc(Cl)cc2[nH]1 [Example 954, (S)-1-(4-(6-chloro-1H-benzo[d]imidazol-2-yl)-6,7-dihydro-1H-imidazo[4,5-c]pyridin-5(4H)-yl)-2-cyclopropylethanone]"
9,500 to 1000 nM,"O=C(c1nc(Cl)cs1)N1CCc2[nH]cnc2[C@H]1c1nc2ccc(Cl)cc2[nH]1 [Example 955, (S)-(4-(6-chloro-1H-benzo[d]imidazol-2-yl)-6,7-dihydro-1H-imidazo[4,5-c]pyridin-5(4H)-yl)(4-chlorothiazol-2-yl)methanone]"
10,> 5000 nM,"O=C(c1nncs1)N1CCc2[nH]cnc2[C@@H]1c1nc2ccc(Cl)cc2[nH]1 [Example 957, (R)-(4-(6-chloro-1H-benzo[d]imidazol-2-yl)-6,7-dihydro-1H-imidazo[4,5-c]pyridin-5(4H)-yl)(1,3,4-thiadiazol-2-yl)methanone]"
11,500 to 1000 nM,"O=C(c1nncs1)N1CCc2[nH]cnc2[C@H]1c1nc2ccc(Cl)cc2[nH]1 [Example 958, (S)-(4-(6-chloro-1H-benzo[d]imidazol-2-yl)-6,7-dihydro-1H-imidazo[4,5-c]pyridin-5(4H)-yl)(1,3,4-thiadiazol-2-yl)methanone]"
12,> 5000 nM,"O=C(C1CC1)N1CCc2[nH]cnc2[C@@H]1c1nc2ccc(Cl)cc2[nH]1 [Example 959, (R)-(4-(6-chloro-1H-benzo[d]imidazol-2-yl)-6,7-dihydro-1H-imidazo[4,5-c]pyridin-5(4H)-yl)(cyclopropyl)methanone]"
13,1000 to 5000 nM,"O=C(C1CC1)N1CCc2[nH]cnc2[C@H]1c1nc2ccc(Cl)cc2[nH]1 [Example 960, (S)-(4-(6-chloro-1H-benzo[d]imidazol-2-yl)-6,7-dihydro-1H-imidazo[4,5-c]pyridin-5(4H)-yl)(cyclopropyl)methanone]"
14,> 5000 nM,"O=C(CCC1CC1)N1CCc2[nH]cnc2[C@@H]1c1nc2ccc(F)cc2[nH]1 [Example 961, (R)-3-cyclopropyl-1-(4-(6-fluoro-1H-benzo[d]imidazol-2-yl)-6,7-dihydro-1H-imidazo[4,5-c]pyridin-5(4H)-yl)propan-1-one]"
15,< 500 nM,"O=C(CCC1CC1)N1CCc2[nH]cnc2[C@H]1c1nc2ccc(F)cc2[nH]1 [Example 962, (S)-3-cyclopropyl-1-(4-(6-fluoro-1H-benzo[d]imidazol-2-yl)-6,7-dihydro-1H-imidazo[4,5-c]pyridin-5(4H)-yl)propan-1-one]"
